Experimental data reported in publication PMC9700480 (Drug Design, Development and Therapy, 2022).

System: alloxan-induced diabetic mice
Assay: In vivo anti-diabetic activity in alloxan-induced diabetic mice
Set-up: species or system albino mice (strain balb/c)

C[C@H]1O[C@H](O[C@H]2[C@H](O)[C@@H](O)[C@@H](O[C@H]3[C@H](O)[C@@H](O)C(O)O[C@@H]3CO)O[C@@H]2CO)[C@H](O)[C@@H](O)[C@@H]1N[C@H]1C=C(CO)[C@@H](O)[C@H](O)[C@H]1O (some centres unmarked) [Acarbose]
Creatinine content (day 21, compared with diabetic control): significant (p < 0.05) decrease in creatinine content | level of insulin in serum (day 21, FA2 at high dose): 25 ± 3.1 pmol/L
